# Assay results from patent US6479435B1, “Diaryl ethers and processes for their preparation and herbicidal and desiccant compositions containing them” (ISK Americas Incorporated, priority 1997, dated 2002).
# Columns and labels:
# Format in all cases: in vivo
# [1] = test system: common ragweed (Ambrosia artemisiifolia L., AMBEL); experiment: Pre-emerge greenhouse herbicide test, phytotoxicity rating; settings: 14 days after application, rating scale 0-100
# Procedure, shortened: (§1)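 Seeds sown in sandy loam mix one day before track-sprayer application of compounds in acetone at 125–1000 g ai/ha (187 l/ha), then surface-watered to incorporate and bottom-watered. Visual rating 14 days after application on a 0–100 scale (0 = no damage, 100 = all plants dead).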
# [2] = test system: ivyleaf morningglory (Ipomoea hederacea, IPOHE); experiment: as above; settings: Ipomoea, pre-emergence, 336 h, 14 days after application, rating scale 0-100; for pest or weed control at 125 g/ha: Rate 125 g al/ha; for pest or weed control at 500 g/ha: Rate 500 g al/ha
# Procedure, shortened: as §1
# [3] = test system: large crabgrass (Digitaria sanguinalis, DIGSA); experiment: as above; settings: Digitaria sanguinalis, pre-emergence, 336 h, 14 days after application, rating scale 0-100; for pest or weed control at 125 g/ha: Rate 125 g al/ha; for pest or weed control at 500 g/ha: Rate 500 g al/ha
# Procedure, shortened: as §1
# [4] = test system: velvetleaf (Abutilon theophrasti, ABUTH); experiment: as above; settings: Abutilon theophrasti, pre-emergence, 336 h, 14 days after application, rating scale 0-100; for pest or weed control at 125 g/ha: Rate 125 g al/ha; for pest or weed control at 500 g/ha: Rate 500 g al/ha
# Procedure, shortened: as §1
# [5] = test system: common ragweed (Ambrosia artemisiifolia L., AMBEL); experiment: Post-emerge greenhouse herbicide test, phytotoxicity rating; settings: 14 days after application, scale 0-100
# Procedure, shortened: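 Compounds in acetone with 0.25% v/v non-ionic surfactant were track-sprayed at 187 l/ha over plants at the 2-3 leaf stage, at 63 to 1000 g ai/ha. Pots were bottom-watered. Injury was scored visually 14 days later on a 0-100 scale, where 0 is no damage and 100 is complete plant death.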
# [6] = test system: Broadleaf Weeds; experiment: Post-emergent application in combination with other herbicides, percent control of broadleaf weeds; settings: 31.25 g ai/ha
# Protocol: All test compounds were dissolved in acetone and applied to the test units in a volume of 187 l/ha. Test materials were applied at rates ranging from 125 g ai/ha to 1000 g ai/ha using a track sprayer equipped with a TJ8001E even flow flat fan spray nozzle. Plants were arranged on a shelf so that the top of the canopy (post-emerge) or top of the soil surface (pre-emerge) was 40-45 cm below the nozzle. Pressurized air was used to force the test solution through the nozzle as it was mechanically advanced (via electrically driven chain drive) over the top of all test plants/pots. This application simulates a typical commercial field herbicide application. […] For post-emerge tests, seeds were planted 8-21 days prior to the test to allow emergence and good foliage development prior to application of the test substances. At the time of the post-emerge application, plants of all species were usually at the 2-3 leaf stage of development. Post-emerge test units were always bottom-watered. At 14 days after application of the test materials, phytotoxicity ratings were recorded. A rating scale of 0-100 was used as previously described in Research Methods in Weed Science, 2nd edition, B. Truelove, Ed., Southern Weed Science Society, Auburn University, Auburn, Ala., 1977. Briefly, “0” corresponds to no damage and “100” corresponds to complete death of all plants in the test unit. This scale was used both to determine efficacy against weed species and damage to crop species. Herbicide activity data for various compounds of this invention, which are shown by compound number in Tables 1-9, are shown in Tables 13 and 14. […] (Note: Weed species abbreviations are from the Composite List of Weeds published by the Weed Science Society of America, 1989.) The following examples illustrate the utility of combinations of compounds of this invention and existing herbicides. The methods used are identical to those for the application of single compounds except the commercial formulations of existing herbicides were added to the spray mixture in the appropriate amounts before spraying. Combination Example 3. Post-emergent Application of Compound 9-1 with Nicosulfuron Combination Example 4. Postemergent Application of Compound 9-1 with Pyridate
SMILES,AMBEL phytotoxicity rating ([1]; Rate 125 g al/ha),AMBEL phytotoxicity rating ([1]; Rate 500 g al/ha),pest or weed control at 125 g/ha [2],pest or weed control at 500 g/ha [2],pest or weed control at 125 g/ha [3],pest or weed control at 500 g/ha [3],pest or weed control at 125 g/ha [4],pest or weed control at 500 g/ha [4],phytotoxicity rating AMBEL ([5]; rate 63 g ai/ha),phytotoxicity rating AMBEL ([5]; rate 500 g ai/ha),further results
"O=c1n(-c2cc(Oc3ncccc3C(F)(F)F)c(Cl)cc2F)c(=S)n2n1CCCC2 [Compound 8-18, 2-[4-chloro-2-fluoro-5-(3-trifluoromethyl-2pyridyloxy)phenyl]hexahydro-3-thioxo-1H-[1,2,4]triazolo[1,2-a]pyridazin-1-one]",100,95,20%,45%,50%,100%,100%,100%,95,60,
"O=c1n(-c2cc(Oc3ncccn3)c(Cl)cc2F)c(=S)n2n1CCCC2 [Compound 8-29, 2-[4-chloro-2-fluoro-5-(2-pyrimidyloxy)phenyl]hexahydro-3-thioxo-1H-[1,2,4]triazolo[1,2-a]pyridazin-1-one]",100,100,100%,100%,100%,100%,100%,100%,90,100,
"Nn1c(C(F)(F)F)cc(=O)n(-c2cc(Oc3ncccc3[N+](=O)[O-])c(Cl)cc2F)c1=O [Compound 9-1, 1-amino-3-[4-chloro-2-fluoro-5-(3-nitro-2-pyridyloxy)phenyl]-6-trifluoromethyl-1,2,3,4-tetrahydropyrimidine-2,4-dione]",,,100%,100%,40%,100%,100%,100%,,,Percent Control of Broadleaf Weeds ABUTH [6]: 60%; Percent Control of Broadleaf Weeds ABUTH ([6]; Combination Example 4): 60%; Percent Control of Broadleaf Weeds AMARE [6]: 60%; Percent Control of Broadleaf Weeds AMARE ([6]; Combination Example 4): 60%; Percent Control of Broadleaf Weeds AMBEL [6]: 40%; Percent Control of Broadleaf Weeds AMBEL ([6]; Combination Example 4): 40%; Percent Control of Broadleaf Weeds CASOB [6]: 0%; Percent Control of Broadleaf Weeds CASOB ([6]; Combination Example 4): 0%; Percent Control of Broadleaf Weeds CHEAL [6]: 90%; Percent Control of Broadleaf Weeds CHEAL ([6]; Combination Example 4): 90%; Percent Control of Broadleaf Weeds IPOHE [6]: 80%; Percent Control of Broadleaf Weeds IPOHE ([6]; Combination Example 4): 80%
"Nn1c(C(F)(F)F)cc(=S)n(-c2cc(Oc3ccc(Cl)cn3)c(Cl)cc2F)c1=O [Compound 9-28, 1-amino-3-[4-chloro-2-fluoro-5-(5-chloro-2-pyridyloxy)phenyl]-6-trifluoromethyl-1,2,3,4tetrahydro-2-oxo-4-thioxopyrimidine]",,,40%,70%,70%,100%,100%,100%,,,
